system: HSV-2 G; experiment: anti-HSV screening test (cytopathogenic effect, fluorescein diacetate fluorescence readout) in Vero cells; type: cell-based; conditions: Human alphaherpesvirus 2, Vero, read-out: IC50 HSV-2 G/Vero
Protocol: (§1) HSV (HSV-1 Walki, HSV-1F or HSV-2G) was replicated on Vero cells (ATCC CCL-81) under the following conditions: the cells were grown in M199 medium (5% fetal calf serum, 2 mM glutamine, 100 IU/ml penicillin, 100 μg/ml streptomycin) in cell culture bottles at 37° C. and 5% CO2. The cells were split 1:4 on each of two occasions each week. For the infection, the medium was removed, and the cells were washed with Hank's solution, detached with 0.05% trypsin, 0.02% EDTA (Seromed L2143) and incubated at a density of 4×10^5 cells per ml under the conditions mentioned above for 24 hours. The medium was then removed, and the virus solution was added at an m.o.i. of <0.05 in a volume of 2 ml per 175 cm^2 of surface area. After incubation under the conditions mentioned for one hour, the medium was made up to a volume of 50 ml per 175 cm^2 bottle. […] The virus was released by freezing (−80° C.) and thawing (37° C.) twice. The cell debris was removed by centrifugation (300 g, 10 min, 4° C.) and the supernatant was frozen in aliquots at −80° C.
(§2) The anti-HSV effect was determined in a screening test system in 96-well microtitre plates with the assistance of various cell lines of neuronal, lymphoid and epithelial origin, such as, for example, Vero (African green monkey kidney cell line), MEF (murine embryonic fibroblasts), HELF (human embryonic fibroblasts), NT2 (human neuronal cell line) or Jurkat (human lymphoid T-cell line).
(§3) The substances dissolved (50 mM) in DMSO (dimethyl sulphoxide) are investigated on microtitre plates (for example 96-well MTP) in final concentrations of 250-0.5 μM (micromolar) in duplicate determinations (4 substances/plate). For potent substances, the dilutions are continued over several plates as far as 0.5 pM (picomolar). Toxic and cytostatic effects of the substance are also recorded. After the appropriate dilutions of the substance (1:2) on the microtitre plate, a suspension of cells (1×10^4 cells per well) such as, for example, Vero cells in M199 (medium 199) with 5% fetal calf serum, 2 mM glutamine and optionally 100 IU/ml penicillin and 100 μg/ml streptomycin or MEF cells in EMEM (Eagle's minimum essential medium) with 10% fetal calf serum, 2 mM glutamine and optionally 100 IU/ml penicillin and 100 μg/ml streptomycin, or HELF cells in EMEM with 10% fetal calf serum, 2 mM glutamine and optionally 100 IU/ml penicillin and 100 μg/ml streptomycin, or NT2 and Jurkat cells in DMEM ([…] glucose plus pyridoxine) with 10% fetal calf serum, 2 mM glutamine, 1 mM sodium pyruvate, nonessential amino acids and optionally 100 IU/ml penicillin and 100 μg/ml streptomycin is put in each well, and the cells in the relevant wells are infected with an appropriate amount of virus (HSV-1 F or HSV-2 G with an m.o.i (multiplicity of infection) of 0.0025 for HELF, Vero and MEF cells and with an m.o.i of 0.1 for NT2 and Jurkat cells). The plates are then incubated at 37° C. in a CO2 incubator (5% CO2) for several days. […] The plates are initially evaluated optically using a microscope and then analysed with a fluorescent dye. For this purpose, the cell culture supernatant is aspirated out of all the wells of the MTP and charged with 200 μl of PBS washing solution.

| Structure (SMILES) | IC50 |
| --- | --- |
| CNS(=O)(=O)c1sc(N(C)C(=O)Nc2ccc(N3CCOCC3)cc2)nc1C [Example 43] | 1.5 µM |

same assay, conditions: Human alphaherpesvirus 2; Vero cells infected with HSV-2 G, m.o.i. 0.0025; half-maximum fluorescence intensity in relation to the uninfected cell control; read-out: IC50 HSV-2 G/Vero

| Structure (SMILES) | IC50 |
| --- | --- |
| CCOc1ccc(NC(=O)N(CCN(C)C)c2nc(C)c(S(=O)(=O)NC)s2)cc1 [Example 2, 2-{[2-(Dimethylamino)ethyl][(4-ethoxyanilino)carbonyl]amino}-N,4-dimethyl-1,3-thiazole-5-sulphonamide] | 1 µM |
| CNS(=O)(=O)c1sc(N(C)C(=O)Nc2ccc(N3CCCC3)cc2)nc1C [Example 94] | 0.05 µM |
| CNS(=O)(=O)c1sc(N(C)C(=O)Nc2ccc(-c3ccccc3)cc2)nc1C [Example 123] | 0.005 µM |

system: HSV-1 F; experiment: as above; type: cell-based; conditions: Human alphaherpesvirus 1, Vero, read-out: IC50 HSV-1 F/Vero
Protocol: as §1, §2, §3

| Structure (SMILES) | IC50 |
| --- | --- |
| CNS(=O)(=O)c1sc(N(C)C(=O)Nc2ccc(N3CCOCC3)cc2)nc1C [Example 43] | 0.5 µM |

same assay, conditions: Human alphaherpesvirus 1; Vero cells infected with HSV-1 F, m.o.i. 0.0025; half-maximum fluorescence intensity in relation to the uninfected cell control; read-out: IC50 HSV-1 F/Vero

| Structure (SMILES) | IC50 |
| --- | --- |
| CCOc1ccc(NC(=O)N(CCN(C)C)c2nc(C)c(S(=O)(=O)NC)s2)cc1 [Example 2, 2-{[2-(Dimethylamino)ethyl][(4-ethoxyanilino)carbonyl]amino}-N,4-dimethyl-1,3-thiazole-5-sulphonamide] | 0.2 µM |
| CNS(=O)(=O)c1sc(N(C)C(=O)Nc2ccc(N3CCCC3)cc2)nc1C [Example 94] | 0.02 µM |
| CNS(=O)(=O)c1sc(N(C)C(=O)Nc2ccc(-c3ccccc3)cc2)nc1C [Example 123] | 0.001 µM |

system: HSV; experiment: in vivo effect: survival of intranasally HSV-infected mice; set-up: species or system strain BALB/cABom; conditions: Mus musculus; female BALB/cABom mice, intranasal infection 5×10^4 pfu; treatment from 6 hours after infection, 3 times a day for 5 days; from graphs of survival; read-out: ED50 (50% of the animals survive at this dose)
Protocol: 6-week old female mice, strain BALB/cABom, were purchased from a commerical breeder (Bomholtgard Breeding and Research Centre Ltd.).
The animals were anaesthetized with diethyl ether (Merck) in a sealed glass vessel. 50 μl of a dilution of the virus stock (infectious dose 5×10^4 pfu) were introduced into the nose of the anaesthetized animals with an Eppendorf pipette. This infectious dose leads to death of 90-100% of the animals after an average of between 5 and 8 days due to a generalized infection with prominent respiratory and central nervous symptoms.
6 hours after the infection, the animals were treated with doses of 0.1-100 mg/kg of body weight 3 times a day at 7.00 h, 14.00 h and 19 h over a period of 5 days. The substances were dissolved in DMSO and resuspended in Tylose/PBS (Hoechst) (final concentration 1.5% DMSO, 0.5% Tylose in PBS).
After the last administration, the animals were observed further and the times of death were recorded.

| Structure (SMILES) | ED50 |
| --- | --- |
| CNS(=O)(=O)c1sc(N(C)C(=O)Nc2ccc(N3CCOCC3)cc2)nc1C [Example 43] | 30 to 40 mg/kg |

system: not given; experiment: not given; conditions: not given

| melting point | Structure (SMILES) |
| --- | --- |
| 210 °C | CNS(=O)(=O)c1sc(N(C)C(=O)Nc2ccc(-c3ccccc3)cc2)nc1C [Example 123] |
| 162 °C | CCOc1ccc(NC(=O)N(CCOC)c2nc(C)c(S(=O)(=O)N(C)C)s2)cc1 |
| 138 °C | Cc1nc(N(CCN(C)C)C(=O)Nc2ccc(-c3ccccc3)cc2)sc1S(N)(=O)=O |
| 197 °C | CN(C(=O)Nc1ccc(N2CCOCC2)cc1)c1nc(Cl)c(S(=O)(=O)N(C)C)s1 [3] |
| 160 °C | CCCN(C(=O)Nc1ccc(-c2ccccc2)cc1)c1nc(C)c(S(=O)(=O)NCC)s1 |
| 190 °C | Cc1nc(N(CCN(C)C)C(=O)Nc2ccc(-c3ccccc3)cc2)sc1S(=O)(=O)N(C)C(=O)Nc1ccc(-c2ccccc2)cc1 |
| 140 °C | CCOC(=O)N1CC2CCN(c3ccc(NC(=O)N(C)c4nc(S(=O)(=O)NC5CC5)c(C)s4)cc3)C2C1 (centres unmarked) |
| 159 °C | CCOc1ccc(NC(=O)N(CCOC)c2nc(C)c(S(=O)(=O)NC)s2)cc1 |
| 167 °C | COCCN(C(=O)Nc1ccc(-c2ccccc2)cc1)c1nc(C)c(S(N)(=O)=O)s1 [151] |
| 184 to 186 °C | Cc1nc(N(C)C(=O)Nc2ccc(-c3ncon3)cc2)sc1S(=O)(=O)N(C)C |
| 176 °C | CCOc1ccc(NC(=O)N(C)c2nc(CC)c(S(=O)(=O)N(C)C)s2)cc1 |
| 194 °C | CCOc1ccc(NC(=O)N(Cc2ccccn2)c2nc(C)c(S(=O)(=O)NC)s2)cc1 |
| 183 °C | CCOc1ccc(NC(=O)N(C)c2nc(Cl)c(S(=O)(=O)NCN3CCCCC3)s2)cc1 |
| 163 °C | CCOc1ccc(NC(=O)N(CCN(C)C)c2nc(C)c(S(=O)(=O)N(C)C)s2)cc1 |
| 154 °C | CCOc1ccc(NC(=O)N(C)c2nc(C)c(S(=O)(=O)NCCn3ccnn3)s2)cc1 |
| 137 °C | CCOc1ccc(NC(=O)Nc2nc(C)c(S(=O)(=O)NCCOC)s2)cc1 |

| melting point | Structure (SMILES) |
| --- | --- |
| 161 °C | CCOc1ccc(NC(=O)N(CCCNC(=O)OC(C)(C)C)c2nc(C)c(S(=O)(=O)NCC(F)(F)F)s2)cc1 [135] |
| 164 °C | CN(C(=O)Nc1ccc(OC(CF)CF)cc1)c1nc(Cl)c(S(=O)(=O)N(C)C)s1 |
| > 250 °C | Cc1nc(NC(=O)Nc2ccc(-c3ccccc3)cc2)sc1S(=O)(=O)N(C)C |
| 165 °C | CCCOc1ccc(NC(=O)N(CCN(C)C)c2nc(C)c(S(=O)(=O)NC)s2)cc1 |
| 204 °C | CCc1nc(N(C)C(=O)Nc2ccc(-c3ccccc3)cc2)sc1S(=O)(=O)NC |
| 196 °C | CNS(=O)(=O)c1sc(N(CCCN(C)C)C(=O)Nc2ccc(-c3ccccc3)cc2)nc1C |
| 170 °C | CCOc1ccc(NC(=O)N(CC2COc3ccccc3O2)c2nc(C)c(S(=O)(=O)NC3CC3)s2)cc1 (centres unmarked) |
| 158 °C | CCOc1ccc(NC(=O)N(C)c2nc(C)c(S(=O)(=O)NCc3cccnc3)s2)cc1 |
| 156 °C | CCOc1ccc(NC(=O)N(CCc2ccccc2)c2nc(C)c(S(=O)(=O)NCc3ccccc3)s2)cc1 |
| 154 °C | CCCN(C(=O)Nc1ccc(OCC)cc1)c1nc(C)c(S(=O)(=O)NC)s1 |
| 156 °C | Cc1nc(N(C)C(=O)Nc2ccc(OCC(O)CO)cc2)sc1S(=O)(=O)N(C)C (centres unmarked) |
| 209 °C | Cc1nc(N(C)C(=O)Nc2ccc(N3CCCC3)cc2)sc1S(N)(=O)=O |
| 200 °C | CCCOc1ccc(NC(=O)N(C)C2=CC(C)=C(S(N)(=O)=O)C2)cc1 |
| 163 °C | CC(=O)N1CCc2c(cccc2Oc2ccc(NC(=O)N(C)c3nc(Cl)c(S(=O)(=O)N(C)C)s3)cc2)C1 |
| 179 °C | CCCN(C(=O)Nc1ccc(N2CCOCC2)cc1)c1nc(C)c(S(=O)(=O)NC)s1 |
| 164 °C | CCCC(=O)Nc1cc(N2CCCC2)ccc1NC(=O)N(C)c1nc(C)c(S(=O)(=O)N(C)C)s1 |

Source: patent publication US6500817B1, “Thiazolyl urea derivatives and their utilization as antiviral agents” (Bayer Aktiengesellschaft, priority 1999, dated 2002)
